The nature of test [1]: Oil stability index (OSI) induction time. It is filed as physicochemical. As to conditions: soybean oil; 500 ppm; FIG. 1.
The nature of test [2]: Active oxygen method (AOM): peroxide value of oils or fats after oxidative stress. The format is physicochemical. As to conditions: soybean oil subjected to oxidative stress; 500 ppm; FIG. 1.

The values that follow come from US20080014323A1, “ANTIOXIDANT COMBINATIONS FOR USE IN FEED RATIONS TO IMPROVE ANTIOXIDANT STATUS OF RUMINANTS” (NOVUS INTERNATIONAL INC., priority 2006, published 2008).

For `CCOc1ccc2c(c1)C(C)=CC(C)(C)N2` [ETX, 6-ethoxy-1,2-dihydro-2,2,4-trimethylquinoline], the OSI induction time result in test [1] is given as “about 6 hr”. Moreover, the peroxide values entry in test [2] is recorded as “about 11 meq”.
